Assay [1] addresses T1, P. acnes β-ketoacyl acyl carrier protein (ACP) synthase III (KAS III) (Cutibacterium acnes, UniProt P0DW99).
T1 construct: gene fabH; wild-type P. acnes KAS III
T1 sequence (P0DW99 1-332): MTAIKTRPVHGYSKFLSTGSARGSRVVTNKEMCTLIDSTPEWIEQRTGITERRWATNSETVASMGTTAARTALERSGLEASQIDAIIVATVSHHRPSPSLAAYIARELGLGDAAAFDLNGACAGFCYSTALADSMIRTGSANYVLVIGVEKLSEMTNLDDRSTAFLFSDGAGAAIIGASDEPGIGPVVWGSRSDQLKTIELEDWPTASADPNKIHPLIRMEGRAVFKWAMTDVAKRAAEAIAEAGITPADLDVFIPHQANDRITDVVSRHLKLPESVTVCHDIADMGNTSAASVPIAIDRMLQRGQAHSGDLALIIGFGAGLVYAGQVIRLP
The format is biochemical.

A further assay has as its target T2, JNK1 (Homo sapiens, UniProt P45983).
T2 construct: gene MAPK8; C-terminal truncated form of human JNK1α1 (residues 1–364), C-terminal 6His tag
Briefly: tryptophan fluorescence quenching titration with purified protein. The format is binding.

Where only a bound is given, the exact number is not on record here.

T2 sequence (P45983 1-364): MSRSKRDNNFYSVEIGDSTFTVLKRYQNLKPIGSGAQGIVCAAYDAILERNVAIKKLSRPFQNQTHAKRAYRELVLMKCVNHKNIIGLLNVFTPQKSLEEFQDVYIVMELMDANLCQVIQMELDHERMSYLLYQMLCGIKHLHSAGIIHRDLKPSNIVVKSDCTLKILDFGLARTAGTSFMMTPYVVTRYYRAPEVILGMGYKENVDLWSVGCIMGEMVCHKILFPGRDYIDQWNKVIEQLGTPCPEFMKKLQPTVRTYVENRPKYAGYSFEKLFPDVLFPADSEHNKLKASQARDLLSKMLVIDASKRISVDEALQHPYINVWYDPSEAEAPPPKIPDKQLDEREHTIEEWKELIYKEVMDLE

As usually defined, the Kd is the equilibrium constant for the complex coming apart. Low values mean tighter binding, high ones weaker binding. With `O=C(CCc1ccc(O)cc1)c1c(O)cc(O)cc1O` [Phloretin, 3-(4-hydroxyphenyl)-1-(2,4,6-trihydroxyphenyl)-1-propanone], the “% reduction of product” value in assay [1] is reported as > 66 % reduction of product. The compound further displayed a dissociation constant Kd on JNK1 of 11.8 µM.

The record behind these values is publication PMC6479541, “Target Proteins of Phloretin for Its Anti-Inflammatory and Antibacterial Activities Against Propionibacterium acnes-Induced Skin Infection” (Molecules, 2019).
